We go through two compounds from the NIST ThermoML archive (doi:10.1021/acs.jced.9b00028).

For data set [1] the following is noted: Crystal; DSC.
The nature of data set [2]: Molar enthalpy of transition or fusion. Particulars: Crystal; DSC.

Numbers after ± are expanded uncertainties.

In the case of `Oc1ccc(Cl)c2cccnc12` [5-chloro-8-hydroxyquinoline], in data set [1], the Triple point temperature was found to be 395.48 ± 1.2 K. Also, in data set [2], the “Molar enthalpy of transition or fusion” value worked out at 6.05 ± 0.227 kcal/mol.

In the case of `Oc1c(Cl)cc(Cl)c2cccnc12` [5,7-dichloro-8-hydroxyquinoline], in data set [1], the Triple point temperature amounted to 452.15 ± 1.2 K. Besides, the “Molar enthalpy of transition or fusion” value in data set [2] stood at 9.51 ± 0.263 kcal/mol.
